Results taken from PubChem BioAssay AID1259407 (Chemical Carcinogenesis Research Information System (CCRIS), 2018).
Activity calls are given as the source filed them. The rule behind the calls is not given here.

System: CCRIS mutagenicity, Ames/micronucleus/aberration tests
Assay: CCRIS mutagenicity studies
[1] = Test System: AMES SALMONELLA TYPHIMURIUM, Strain/Indicator: TA98, Metabolic Activation: NONE, Method: PREINCUBATION
[2] = Test System: AMES SALMONELLA TYPHIMURIUM, Strain/Indicator: TA98, Metabolic Activation: RAT, LIVER, S-9, AROCLOR 1254, Method: PREINCUBATION
[3] = Test System: AMES SALMONELLA TYPHIMURIUM, Strain/Indicator: TA100, Metabolic Activation: RAT, LIVER, S-9, AROCLOR 1254, Method: PREINCUBATION

Brc1cccc(-c2ccccc2)c1
mutagenic call (Test System: AMES SALMONELLA TYPHIMURIUM, Strain/Indicator: TA98, Metabolic Activation: HAMSTER, LIVER, S-9, AROCLOR 1254, Method: PREINCUBATION): inactive; negative | mutagenic call [1]: inactive; negative | mutagenic call [2]: inactive; negative | mutagenic call (Test System: AMES SALMONELLA TYPHIMURIUM, Strain/Indicator: TA100, Metabolic Activation: HAMSTER, LIVER, S-9, AROCLOR 1254, Method: PREINCUBATION): inactive; negative | mutagenic call (Test System: AMES SALMONELLA TYPHIMURIUM, Strain/Indicator: TA100, Metabolic Activation: NONE, Method: PREINCUBATION): inactive; negative | mutagenic call [3]: inactive; negative | mutagenic call (Test System: AMES SALMONELLA TYPHIMURIUM, Strain/Indicator: TA1535, Metabolic Activation: HAMSTER, LIVER, S-9, AROCLOR 1254, Method: PREINCUBATION): inactive; negative | mutagenic call (Test System: AMES SALMONELLA TYPHIMURIUM, Strain/Indicator: TA1535, Metabolic Activation: NONE, Method: PREINCUBATION): inactive; negative | mutagenic call (Test System: AMES SALMONELLA TYPHIMURIUM, Strain/Indicator: TA1535, Metabolic Activation: RAT, LIVER, S-9, AROCLOR 1254, Method: PREINCUBATION): inactive; negative | mutagenic call (Test System: AMES SALMONELLA TYPHIMURIUM, Strain/Indicator: TA1537, Metabolic Activation: HAMSTER, LIVER, S-9, AROCLOR 1254, Method: PREINCUBATION): inactive; negative | mutagenic call (Test System: AMES SALMONELLA TYPHIMURIUM, Strain/Indicator: TA1537, Metabolic Activation: NONE, Method: PREINCUBATION): inactive; negative | mutagenic call (Test System: AMES SALMONELLA TYPHIMURIUM, Strain/Indicator: TA1537, Metabolic Activation: RAT, LIVER, S-9, AROCLOR 1254, Method: PREINCUBATION): inactive; negative

CCCCNCCCNCCCNC(=O)c1csc(-c2csc(CCNC(=O)C(NC(=O)C(C)C(O)C(C)NC(=O)C(NC(=O)c3nc(C(CC(N)=O)NCC(N)C(N)=O)nc(N)c3C)C(OC3OC(CO)C(O)C(O)C3OC3OC(CO)C(O)C(OC(N)=O)C3O)c3cnc[nH]3)C(C)O)n2)n1 (stereo not drawn)
mutagenic call (Test System: AMES SALMONELLA TYPHIMURIUM, Strain/Indicator: TA102, Metabolic Activation: NONE, Method: PREINCUBATION): active; positive

CCN(CC)c1ccc2c(-c3ccc(S(=O)(=O)O)cc3S(=O)(=O)[O-])c3ccc(=[N+](CC)CC)cc-3oc2c1
mutagenic call (End Point: IN VIVO MICRONUCLEUS, Test System: BONE MARROW POLYCHROMATIC ERYTHROCYTES, Species: MOUSE, Strain/Sex: DDY/MALE, Route: IP): inactive; negative | mutagenic call (Test System: AMES SALMONELLA TYPHIMURIUM, Strain/Indicator: TA98, Metabolic Activation: HAMSTER, LIVER, S-9, AROCLOR 1254 (10%), Method: STANDARD PLATE): active; positive | mutagenic call (Test System: AMES SALMONELLA TYPHIMURIUM, Strain/Indicator: TA98, Metabolic Activation: NONE, Method: STANDARD PLATE): inactive; negative | mutagenic call (Test System: AMES SALMONELLA TYPHIMURIUM, Strain/Indicator: TA98, Metabolic Activation: RAT, LIVER, S-9, AROCLOR 1254 (10%), Method: STANDARD PLATE): active; positive | mutagenic call (Test System: AMES SALMONELLA TYPHIMURIUM, Strain/Indicator: TA100, Metabolic Activation: HAMSTER, LIVER, S-9, AROCLOR 1254 (10%), Method: STANDARD PLATE): inactive; negative | mutagenic call (Test System: AMES SALMONELLA TYPHIMURIUM, Strain/Indicator: TA100, Metabolic Activation: NONE, Method: STANDARD PLATE): inactive; negative | mutagenic call (Test System: AMES SALMONELLA TYPHIMURIUM, Strain/Indicator: TA100, Metabolic Activation: RAT, LIVER, S-9, AROCLOR 1254 (10%), Method: STANDARD PLATE): inactive; negative | mutagenic call (Test System: AMES SALMONELLA TYPHIMURIUM, Strain/Indicator: TA1538, Metabolic Activation: NONE, Method: STANDARD PLATE): inactive; negative | mutagenic call (Test System: AMES SALMONELLA TYPHIMURIUM, Strain/Indicator: TA1538, Metabolic Activation: RAT, LIVER, S-9, AROCLOR 1254, Method: STANDARD PLATE): inactive; negative | mutagenic call (Test System: MOUSE LYMPHOMA, Strain/Indicator: L5178Y (TK+/TK-), Metabolic Activation: NONE, Method: SUSPENSION/PLATE): inactive; negative | mutagenic call (Test System: MOUSE LYMPHOMA, Strain/Indicator: L5178Y (TK+/TK-), Metabolic Activation: RAT, LIVER, S-9, AROCLOR 1254, Method: SUSPENSION/PLATE): active; positive

N/C(=N\O)c1ccccc1
mutagenic call (Test System: AMES SALMONELLA TYPHIMURIUM, Strain/Indicator: TA98, Metabolic Activation: CO631 CELLS, Method: PREINCUBATION): inactive; negative | mutagenic call [1]: inactive; negative | mutagenic call (Test System: AMES SALMONELLA TYPHIMURIUM, Strain/Indicator: TA98, Metabolic Activation: RABBIT, LIVER, S-9, Method: PREINCUBATION): active; positive | mutagenic call (Test System: AMES SALMONELLA TYPHIMURIUM, Strain/Indicator: TA98, Metabolic Activation: RAT HEPATOCYTES, Method: PREINCUBATION): inactive; negative | mutagenic call (Test System: AMES SALMONELLA TYPHIMURIUM, Strain/Indicator: TA98, Metabolic Activation: RAT, LIVER, S-9, AROCLOR 1254, ATP, Method: PREINCUBATION): inactive; negative | mutagenic call [2]: inactive; negative | mutagenic call (Test System: AMES SALMONELLA TYPHIMURIUM, Strain/Indicator: TA100, Metabolic Activation: RABBIT, LIVER, S-9, Method: PREINCUBATION): inactive; negative | mutagenic call (Test System: AMES SALMONELLA TYPHIMURIUM, Strain/Indicator: TA100, Metabolic Activation: RAT HEPATOCYTES, Method: PREINCUBATION): inactive; negative | mutagenic call (Test System: AMES SALMONELLA TYPHIMURIUM, Strain/Indicator: TA100, Metabolic Activation: RAT, LIVER, S-9, AROCLOR 1254, ATP, Method: PREINCUBATION): inactive; negative | mutagenic call [3]: inactive; negative

CCCCCCCCCCCCC1CCC1=O (stereo not drawn)
mutagenic call (End Point: In vitro micronucleus, Test System: Human TK6 lymphoblasts, Metabolic Activation: None): active; positive (at highest dose) | mutagenic call (End Point: In vitro micronucleus, Test System: Human TK6 lymphoblasts, Metabolic Activation: Rat, Liver, S-9, Aroclor (1%)): active; positive (at highest dose) | mutagenic call (Test System: Ames Salmonella typhimurium, Strain/Indicator: TA98, Metabolic Activation: None, Method: Microtiter plate-based Miniscreen assay): inactive; negative | mutagenic call (Test System: Ames Salmonella typhimurium, Strain/Indicator: TA98, Metabolic Activation: Rat, Liver, S-9, Aroclor 1254 (5%), Method: Microtiter plate-based Miniscreen assay): inactive; negative | mutagenic call (Test System: Ames Salmonella typhimurium, Strain/Indicator: TA100, Metabolic Activation: None, Method: Microtiter plate-based Miniscreen assay): inactive; negative | mutagenic call (Test System: Ames Salmonella typhimurium, Strain/Indicator: TA100, Metabolic Activation: Rat, Liver, S-9, Aroclor 1254 (5%), Method: Microtiter plate-based Miniscreen assay): inactive; negative | mutagenic call (Test System: Ames Salmonella typhimurium, Strain/Indicator: TA1535, Metabolic Activation: None, Method: Microtiter plate-based Miniscreen assay): inactive; negative | mutagenic call (Test System: Ames Salmonella typhimurium, Strain/Indicator: TA1535, Metabolic Activation: Rat, Liver, S-9, Aroclor 1254 (5%), Method: Microtiter plate-based Miniscreen assay): inactive; negative | mutagenic call (Test System: Ames Salmonella typhimurium, Strain/Indicator: TA1537, Metabolic Activation: None, Method: Microtiter plate-based Miniscreen assay): inactive; negative | mutagenic call (Test System: Ames Salmonella typhimurium, Strain/Indicator: TA1537, Metabolic Activation: Rat, Liver, S-9, Aroclor 1254 (5%), Method: Microtiter plate-based Miniscreen assay): inactive; negative

O=C(Cl)C(Cl)(Cl)Cl
mutagenic call (Test System: AMES SALMONELLA TYPHIMURIUM, Strain/Indicator: TA100, Metabolic Activation: NONE, Method: BAG VAPORIZATION): active; positive | mutagenic call (Test System: AMES SALMONELLA TYPHIMURIUM, Strain/Indicator: TA100, Metabolic Activation: RAT, LIVER, S-9, AROCLOR 1254, Method: BAG VAPORIZATION): active; positive

CC[C@H]1OC(=O)[C@H](C)[C@@H](O[C@H]2C[C@@](C)(OC)[C@@H](O)[C@H](C)O2)[C@H](C)[C@@H](O[C@@H]2O[C@H](C)C[C@H](N(C)C)[C@H]2O)[C@](C)(OC)C[C@@H](C)C(=O)[C@H](C)[C@@H](O)[C@]1(C)O
mutagenic call (End Point: AMES SALMONELLA TYPHIMURIUM, Test System: TA98, Metabolic Activation: NONE, Method: STANDARD PLATE): inactive; negative | mutagenic call (End Point: AMES SALMONELLA TYPHIMURIUM, Test System: TA100, Metabolic Activation: NONE, Method: STANDARD PLATE): inactive; negative
